ChEMBL document CHEMBL1201862, “PubChem BioAssay data set” (2004)
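Each compound was tested at five concentrations against cells in 96-well plates for 48 hours. GI50 is the concentration that inhibits growth by half.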 Active and inactive are the calls of the source. Cut-off read from the data, not from the text of the source: active = GI50 up to about 1.1 µM and inactive = higher.

Tests used:
Test in all cases: NCI anticancer screen, dose series, 48 h
786-0 = system: 786-0
A549 = system: A549
K562 = system: K562
KM12 = system: KM12
M14 = system: M14
NCI-H460 = system: NCI-H460
NCI-H522 = system: NCI-H522
OVCAR-4 = system: OVCAR-4
OVCAR-5 = system: OVCAR-5
RPMI-8226 = system: RPMI-8226
SF-295 = system: SF-295
SN12C = system: SN12C
SW-620 = system: SW-620
U-251 = system: U-251
UACC-257 = system: UACC-257
HL-60 = system: HL-60
SR = system: SR

Row | SMILES | GI50 (786-0) | GI50 (A549) | GI50 (K562) | GI50 (KM12) | GI50 (M14) | GI50 (NCI-H460) | GI50 (NCI-H522) | GI50 (OVCAR-4) | GI50 (OVCAR-5) | GI50 (RPMI-8226) | GI50 (SF-295) | GI50 (SN12C) | GI50 (SW-620) | GI50 (U-251) | GI50 (UACC-257) | GI50 (HL-60) | GI50 (SR)
1 | O=C(O)C1=CCCc2ccc3ccccc3c21 | > 100 µM (inactive) | > 100 µM (inactive) | > 100 µM (inactive) | > 100 µM (inactive) | > 100 µM (inactive) | > 100 µM (inactive) | > 100 µM (inactive) | > 100 µM (inactive) | > 100 µM (inactive) | > 100 µM (inactive) | > 100 µM (inactive) | > 100 µM (inactive) | > 100 µM (inactive) | > 100 µM (inactive) | > 100 µM (inactive) |  | 
2 | CCOC(=O)C1=C(NC)OC/C1=N\NC(=O)c1ccccc1O | 33.4 µM (inactive) | 32.1 µM (inactive) | 18.6 µM (inactive) | 53.2 µM (inactive) | 22.5 µM (inactive) | 28.2 µM (inactive) | 9.31 µM (inactive) | 16.3 µM (inactive) | 48.3 µM (inactive) | 32.3 µM (inactive) | 50.9 µM (inactive) | 45.9 µM (inactive) | 31.8 µM (inactive) | 19.3 µM (inactive) | 1.49 µM (inactive) | 19.3 µM (inactive) | 
3 | CCCCCCCCCCCCCCCCCC(=O)OCC(CN(C)CCN(C)C)OC(=O)CCCCCCCCCCCCCCCCC (stereo not drawn) | > 100 µM (inactive) | 55.3 µM (inactive) | 15.8 µM (inactive) | 88.5 µM (inactive) | > 100 µM (inactive) | > 100 µM (inactive) | > 100 µM (inactive) | > 100 µM (inactive) | > 100 µM (inactive) | > 100 µM (inactive) | 63.4 µM (inactive) | > 100 µM (inactive) | > 100 µM (inactive) | > 100 µM (inactive) | > 100 µM (inactive) |  | 35.9 µM (inactive)
4 | CCOc1ccccc1C=C1c2ccccc2C(=O)c2ccccc21 | 3.38 µM (inactive) | 5.16 µM (inactive) | 3.32 µM (inactive) | 0.673 µM (active) | 5.83 µM (inactive) | 4.15 µM (inactive) | 2.36 µM (inactive) | 22.1 µM (inactive) | 12.8 µM (inactive) | 3.81 µM (inactive) | 3.82 µM (inactive) | 6.56 µM (inactive) | 3.72 µM (inactive) | 4.37 µM (inactive) | 4.21 µM (inactive) | 2.99 µM (inactive) | 
5 | CCOc1ccc(/C(C=O)=C(\Cl)c2ccc(OC)c(OC)c2)cc1 |  |  | > 100 µM (inactive) |  | > 100 µM (inactive) | > 100 µM (inactive) | > 100 µM (inactive) |  |  | > 100 µM (inactive) | 79.6 µM (inactive) | > 100 µM (inactive) | > 100 µM (inactive) | > 100 µM (inactive) |  | 11.4 µM (inactive) | 
6 | O=C1Sc2sc(=S)sc2SC1c1ccccc1 (stereo not drawn) |  | > 100 µM (inactive) | 32.7 µM (inactive) | > 80.9 µM (inactive) |  | 80.7 µM (inactive) | 14.2 µM (inactive) | 18.3 µM (inactive) | > 100 µM (inactive) | 46.9 µM (inactive) | > 81.1 µM (inactive) | > 89.7 µM (inactive) | 21.1 µM (inactive) | 52.5 µM (inactive) | > 74.3 µM (inactive) | 20 µM (inactive) | 
7 | S=P1(c2ccccc2)Nc2ccc(Cl)cc2N1 (stereo not drawn) | > 100 µM (inactive) | > 100 µM (inactive) | 49.3 µM (inactive) | 88.9 µM (inactive) | 18.5 µM (inactive) | > 100 µM (inactive) | 36.5 µM (inactive) | 6.49 µM (inactive) | > 100 µM (inactive) | 4.68 µM (inactive) | > 100 µM (inactive) |  | > 100 µM (inactive) | > 100 µM (inactive) | > 100 µM (inactive) | 7.48 µM (inactive) | 
8 | Cc1cc(N(CCC#N)CCC#N)ccc1/N=N/c1ccc(S(N)(=O)=O)cc1 | > 100 µM (inactive) | > 100 µM (inactive) | > 100 µM (inactive) | > 100 µM (inactive) | > 100 µM (inactive) |  | > 100 µM (inactive) | > 100 µM (inactive) | > 100 µM (inactive) | > 100 µM (inactive) | > 100 µM (inactive) | > 100 µM (inactive) | > 100 µM (inactive) | > 100 µM (inactive) | > 100 µM (inactive) | > 100 µM (inactive) | 
9 | CCOC(=O)C(C)c1c(C(=O)c2ccc(C)nc2)c2ccccc2n1C (stereo not drawn) | > 100 µM (inactive) | > 100 µM (inactive) | > 100 µM (inactive) | > 100 µM (inactive) | > 100 µM (inactive) | > 100 µM (inactive) | 79.6 µM (inactive) | > 100 µM (inactive) | > 100 µM (inactive) | 72.1 µM (inactive) | > 100 µM (inactive) | > 100 µM (inactive) | > 100 µM (inactive) |  | > 100 µM (inactive) | > 100 µM (inactive) | 
10 | C#C[C@]1(O)CCC2C3CCc4cc(Oc5nc(F)nc(-c6c7cc8ccccc8cc7c7n6CCS7)n5)ccc4C3CCC21C (stereo partly drawn) | 51.8 µM (inactive) | 41.3 µM (inactive) | 37.7 µM (inactive) | 33.1 µM (inactive) | 29.2 µM (inactive) | 33.1 µM (inactive) | 21.3 µM (inactive) |  |  | 41.5 µM (inactive) | 34 µM (inactive) | 41.5 µM (inactive) | 44.3 µM (inactive) | 39.4 µM (inactive) | 77.6 µM (inactive) | 36.7 µM (inactive) | 
11 | CN(C)CCSc1cccc(-c2cc(-c3cccc(SCCN(C)C)c3)nc(SCCN(C)C)n2)c1 | 7.85 µM (inactive) | 1.71 µM (inactive) | 1.49 µM (inactive) | 1.66 µM (inactive) | 1.62 µM (inactive) | 1.85 µM (inactive) | 1.61 µM (inactive) | 1.67 µM (inactive) | 6.79 µM (inactive) |  | 2 µM (inactive) | 12.1 µM (inactive) | 1.87 µM (inactive) | 1.91 µM (inactive) | 1.59 µM (inactive) | 1.85 µM (inactive) | 1.82 µM (inactive)
12 | Cc1nc([N+](=O)[O-])cn1CC(=N)N | > 100 µM (inactive) | > 100 µM (inactive) | > 100 µM (inactive) |  | > 100 µM (inactive) | > 100 µM (inactive) |  | > 100 µM (inactive) |  | > 100 µM (inactive) | > 100 µM (inactive) | > 100 µM (inactive) | > 100 µM (inactive) | > 100 µM (inactive) | > 100 µM (inactive) | > 100 µM (inactive) | > 100 µM (inactive)
13 | COc1cccc(NC(=O)CC(=O)N2N=C(N3c4ccccc4Sc4ccccc43)CC2c2ccccc2)c1 (stereo not drawn) | > 100 µM (inactive) | > 100 µM (inactive) |  | > 100 µM (inactive) | > 100 µM (inactive) | > 100 µM (inactive) |  | > 100 µM (inactive) | > 100 µM (inactive) | > 100 µM (inactive) | > 100 µM (inactive) | > 100 µM (inactive) | > 100 µM (inactive) | > 100 µM (inactive) | > 100 µM (inactive) |  | > 100 µM (inactive)
14 | NC(=O)/C(=N\NC(=O)c1cc2ccccc2cc1O)C1C(=O)N(c2ccccc2)N=C1N (stereo not drawn) | 40 µM (inactive) | 30.6 µM (inactive) |  | 35.6 µM (inactive) | 31.5 µM (inactive) | > 100 µM (inactive) |  | 22.6 µM (inactive) | 22.2 µM (inactive) | 13.8 µM (inactive) | 33 µM (inactive) | 40.5 µM (inactive) | 37.2 µM (inactive) | 30.3 µM (inactive) | 23.4 µM (inactive) | 6 µM (inactive) | 
15 | O=C(Nc1cc([N+](=O)[O-])cc([N+](=O)[O-])c1)OC1C2CCC1C1OC1C2 (stereo not drawn) | > 50 µM (inactive) | > 50 µM (inactive) | > 50 µM (inactive) | 29.1 µM (inactive) | > 50 µM (inactive) | > 50 µM (inactive) | 29.1 µM (inactive) | > 50 µM (inactive) | > 50 µM (inactive) | 22.6 µM (inactive) | > 50 µM (inactive) |  | > 50 µM (inactive) | > 50 µM (inactive) | 32.4 µM (inactive) | 32.1 µM (inactive) | 
16 | Cc1cc2c(=O)cc(-c3ccc(Cl)cc3)oc2c(C(=O)O)c1C | > 100 µM (inactive) | > 100 µM (inactive) | > 100 µM (inactive) | > 100 µM (inactive) | > 100 µM (inactive) | > 100 µM (inactive) | 29.5 µM (inactive) | > 100 µM (inactive) | > 100 µM (inactive) | > 100 µM (inactive) | > 100 µM (inactive) | > 100 µM (inactive) | > 100 µM (inactive) | > 100 µM (inactive) | > 100 µM (inactive) |  | 
17 | O=C(c1ccccc1)[C@H]1Nc2ccc(Cl)cc2[C@H]2CCC[C@@H]12 | 44.9 µM (inactive) | 42 µM (inactive) | 15.4 µM (inactive) | 49.1 µM (inactive) | 11.7 µM (inactive) | 24.5 µM (inactive) | 23.3 µM (inactive) | 26.2 µM (inactive) | 23.7 µM (inactive) | 11.9 µM (inactive) | 32.1 µM (inactive) | 14.6 µM (inactive) | 27.9 µM (inactive) | 35.6 µM (inactive) |  |  | 7.21 µM (inactive)
18 | CC(=O)OC1CCC2(C)C(CCC3C2CCC2(C)C(c4ccc(=O)oc4)C(OC(C)=O)CC32O)C1 (stereo not drawn) |  | 0.0135 µM (active) | 0.0161 µM (active) | 0.0172 µM (active) |  | 0.0147 µM (active) | 0.016 µM (active) | 0.0125 µM (active) | 0.0397 µM (active) | 0.0148 µM (active) | 0.016 µM (active) | 0.0162 µM (active) | 0.0148 µM (active) | 0.0184 µM (active) | 0.023 µM (active) | 0.0154 µM (active) | 
